Measured values as given in US4994473A, “Pyridyl containing insecticides” (ICI Americas Inc., priority 1988, dated 1991).

Legend:
[1] = test system: Aphis fabae; assay: Black bean aphid spray test on nasturtium plants, mortality after 48 hours; assay type: in vivo, Black Bean Aphid Aphis fabae (Scop.); settings: mixed ages, percent of test compound in sprayed solution
Protocol: (§1) The compounds in Table I above were tested for insecticidal activity using the following testing procedures. LC50 values, based on the results of these tests and calculated according to dosage-mortality curves, are expressed in Table II.
Black Bean Aphid Aphis fabae (Scop.)
Nasturtium plants (Tropaeolum sp.) approximately 5 cm tall, were transplanted into sandy loam soil in small cups and infested with 25-50 black bean aphids of mixed ages. Twenty-four hours later they were sprayed to the point of runoff with 50--50 acetone-water solutions of the test compound. Treated plants were held in the greenhouse and mortality was recorded after 48 hours. Test concentrations ranged from 0.05% downward. The LC-50 value is expressed below in Table II under the heading "BA" in terms of percent of the test compound in the sprayed solution.

[2] = test system: Musca domestica; assay: Housefly contact test, mortality after 48 hours; assay type: in vivo, Housefly Musca domestica; settings: μg of the test compound per 25 female flies
Protocol: as §1
The test compound was diluted in acetone and aliquots pipetted onto the bottom of aluminum dishes. To ensure even spreading of the chemical on the bottom of the dishes, 1 ml of acetone containing 0.01% peanut oil was also added to each dish. After all solvents had evaporated, the dishes were placed in circular cardboard cages containing 25 female houseflies, 1-2 days old. The cages were covered on the bottom with cellophane and on the top with tulle netting, and each contained a sugar-water saturated cotton plug for maintenance of the flies. Mortality was recorded after 48 hours. Test levels ranged from 100 μg/25 female houseflies downward. The LC-50 value is expressed below in Table II under the heading "HF", in terms of μg of the test compound per 25 female flies.

[3] = test system: Diabrotica undecimpunctata undecimpunctata; assay: Western spotted cucumber beetle larvae soil test; assay type: in vivo; settings: Diabrotica eggs/larvae; ppm of the test compound in the soil
Protocol: as §1
Western Spotted Cucumber Beetle Larvae Diabrotica undecimpunctata undecimpunctata (Mannherheim)
Ten grams of moist potting soil was placed in a plastic cup. The test compound was dissolved in acetone. A 0.05 ml aliquot of the test sample, diluted to the desired concentration, was added to the soil. The cup was capped and the soil was mixed on a vortex mixer for approximately 15 seconds. An indentation was made on the surface of the soil and approximately 50 Diabrotica eggs were added. The eggs were covered with soil and maintained at room temperature (approximately 70° F. or 21° C.). Four days later a section of Romaine lettuce (Latuca sativa) leaf was placed in the treated cups. One week later the cups were examined for live larvae. Test concentrations ranged from 25 ppm downward. The LC-50 value is expressed below in Table II under the heading "Diabrotica" in terms of ppm of the test compound in the soil.

[4] = test system: Tetranychus urticae; assay: Two-spotted mite acaricidal test on pinto bean plants; assay type: in vivo, two-spotted mite Tetranychus urticae (Koch); settings: percent concentration in solution, 5-7 days; for LC50 2-SM A: adults; for LC50 2-SM E: eggs
Excerpt: Acaricidal Evaluation Test
The two-spotted mite (2SM) [Tetranychus urticae (Koch)]was employed in tests for miticides. The test procedure was as follows:
Pinto bean plants (Phaseolus sp.) approximately 10 cm tall, were transplanted into sandy loam soil in small cups and thoroughly infested with two-spotted mites of mixed ages and sexes. Twenty-four hours later the infested plants were inverted and dipped for 2-3 seconds in 50--50 acetone-water solutions of the test compound. Treated plants were held in the greenhouse, and 5-7 days later mortality was determined for both adult mites and the nymphs hatching from eggs which were on the plants at the time of treatment. Test concentrations ranged from 0.05% downward. The LC-50 value is expressed below in Table II under the headings "2SM-A" (i.e., adults) and "2SM-E" (i.e. eggs) in terms of percent concentration of the test compound in the solution.

[5] = test system: Trichoplusia ni; assay: Cabbage looper larvae leaf-dip test; assay type: in vivo, Cabbage Looper Trichoplusia ni (Hubner); settings: second instar larvae, percent of test compound in solution, 3-5 days
Protocol: as §1
Cabbage Looper Trichoplusia ni (Hubner)
The test compound was diluted in a 50--50 acetone-water solution Cotyledons of hyzini squash (Calabacita abobrinha), approximately 1×1.5 inches, were immersed in the test solutions for 2-3 seconds and placed on a wire screen to dry. The dried leaves were p1aced in petri dishes containing a moistened piece of filter paper and infested with 5 secondinstar cabbage looper larvae. The dishes were placed in a high humidity chamber. Mortality of the larvae was recorded 3-5 days later. Test concentrations ranged from 0.1% downward. The LC-50 value is expressed below in Table II under the heading "CL" in terms of percent of the test compound in solution.

[6] = test system: Heliothis virescens; assay: Tobacco budworm egg dip test; assay type: in vivo, Tobacco Budworm Heliothis virescens (Fabricius); settings: 2-day old eggs (TBW-E), percent of test compound in solution
Protocol: as §1
Tobacco Budworm Heliothis virescens (Fabricius)
Eggs: Paper towel patches of 2-day old eggs of the tobacco budworm were dipped in acetone solutions of the test compound and placed in petri dishes containing a portion of larval rearing medium. Treated eggs were maintained at 78° F. and mortality was recorded after all control eggs had hatched and the young larvae were feeding on the media. Test concentrations ranged from 0.1% downward. The LC-50 value is expressed below in Table II under the heading "TBW-E" in terms of percent of the test compound in the solution.

## CC(C)C(=Nc1ccc(Cl)nc1)OCc1cccc(Oc2ccccc2)c1 [Compound 1, N-(6-Chloro-3-pyridyl)-0-(3-phenoxybenzyl)isobutyrylimidate]
[1]
  LC50 BA: 0.001%
[2]
  LC50 HF: 5.5 µg
[3]
  LC50 Diabrotica: > 25 ppm
[4]
  LC50 2-SM A: > 0.05%
  LC50 2-SM E: > 0.05%
[5]
  LC50 CL: 0.005%
[6]
  LC50 TBW: 0.04%

## CC(C)C(=Nc1ccc(Cl)nc1Cl)OCc1cccc(Oc2ccccc2)c1 [Compound 2]
[1]
  LC50 BA: 0.003%
[2]
  LC50 HF: 18 µg
[3]
  LC50 Diabrotica: > 25 ppm
[4]
  LC50 2-SM A: > 0.05%
  LC50 2-SM E: > 0.05%
[5]
  LC50 CL: 0.0027%
[6]
  LC50 TBW: 0.075%

## Cc1ccc(N=C(OCc2cccc(Oc3ccccc3)c2)C(C)C)cn1 [Compound 10]
[1]
  LC50 BA: 0.05%
[2]
  LC50 HF: 25 µg
[4]
  LC50 2-SM A: > 0.05%
  LC50 2-SM E: > 0.05%
[5]
  LC50 CL: > 0.1%
[6]
  LC50 TBW: > 0.1%

## CC(C)C(=Nc1ccc(Br)nc1)OCc1cccc(Oc2ccccc2)c1 [Compound 11]
[1]
  LC50 BA: 0.01%
[2]
  LC50 HF: 7 µg
[4]
  LC50 2-SM A: > 0.05%
  LC50 2-SM E: > 0.05%
[5]
  LC50 CL: 0.01%
[6]
  LC50 TBW: > 0.1%

## CC(C)(Cl)C(=Nc1ccc(Br)nc1)OCc1cccc(Oc2ccccc2)c1 [Compound 12]
[1]
  LC50 BA: 0.05%
[2]
  LC50 HF: 12 µg
[4]
  LC50 2-SM A: > 0.05%
  LC50 2-SM E: > 0.05%
[5]
  LC50 CL: 0.02%
[6]
  LC50 TBW: > 0.1%

## CC(C)C(=Nc1cncc(Br)c1)OCc1cccc(Oc2ccccc2)c1 [Compound 13]
[1]
  LC50 BA: > 0.05%
[2]
  LC50 HF: 7 µg
[5]
  LC50 CL: 0.015%
[6]
  LC50 TBW: > 0.1%

## CC(C)C(=Nc1ccc2ncccc2c1)OCc1cccc(Oc2ccccc2)c1 [Compound 16]
[2]
  LC50 HF: 59 µg
[3]
  LC50 Diabrotica: > 25 ppm
[4]
  LC50 2-SM A: > 0.05%
  LC50 2-SM E: > 0.05%
[5]
  LC50 CL: 0.025%
[6]
  LC50 TBW: > 0.1%

## CC(C)C(=Nc1cnc2ccccc2c1)OCc1cccc(Oc2ccccc2)c1 [Compound 17]
[2]
  LC50 HF: 36 µg
[3]
  LC50 Diabrotica: > 25 ppm
[4]
  LC50 2-SM A: > 0.05%
  LC50 2-SM E: > 0.05%
[5]
  LC50 CL: 0.05%
[6]
  LC50 TBW: > 0.1%

## CC(C)C(=Nc1ccc2ncoc2c1)OCc1cccc(Oc2ccccc2)c1 [Compound 18]
[2]
  LC50 HF: 8 µg
[3]
  LC50 Diabrotica: > 25 ppm
[4]
  LC50 2-SM A: > 0.05%
  LC50 2-SM E: > 0.05%
[5]
  LC50 CL: 0.009%
[6]
  LC50 TBW: > 0.1%

## CC(C)C(=Nc1ccc2ocnc2c1)OCc1cccc(Oc2ccccc2)c1 [Compound 19]
[2]
  LC50 HF: 10 µg
[3]
  LC50 Diabrotica: > 25 ppm
[4]
  LC50 2-SM A: > 0.05%
  LC50 2-SM E: > 0.05%
[5]
  LC50 CL: 0.04%
[6]
  LC50 TBW: > 0.1%

## CC(C)C(=Nc1ccc2ncsc2c1)OCc1cccc(Oc2ccccc2)c1 [Compound 20]
[2]
  LC50 HF: 6 µg
[5]
  LC50 CL: 0.009%

## CC(C)C(=Nc1ccc2nc(C(C)C)sc2c1)OCc1cccc(Oc2ccccc2)c1 [Compound 21]
[2]
  LC50 HF: > 100 µg
[3]
  LC50 Diabrotica: > 25 ppm
[4]
  LC50 2-SM A: > 0.05%
  LC50 2-SM E: > 0.05%
[5]
  LC50 CL: 0.05%
[6]
  LC50 TBW: > 0.1%

## CC(C)C(=Nc1ccc(Cl)nc1)OCc1cccc(Oc2ccc(F)cc2)c1 [Compound 22]
[2]
  LC50 HF: 9 µg
[3]
  LC50 Diabrotica: > 25 ppm
[4]
  LC50 2-SM A: > 0.05%
  LC50 2-SM E: > 0.05%
[5]
  LC50 CL: 0.001%
[6]
  LC50 TBW: 0.05%

## CC(C)C(=Nc1ccc(Cl)nc1)NCc1cccc(Oc2ccccc2)c1 [Compound 23]
[2]
  LC50 HF: > 100 µg
[3]
  LC50 Diabrotica: > 25 ppm
[4]
  LC50 2-SM A: > 0.05%
  LC50 2-SM E: > 0.05%
[5]
  LC50 CL: 0.1%
[6]
  LC50 TBW: > 0.1%

## Cc1nc2cc(N=C(OCc3cccc(Oc4ccccc4)c3)C(C)C)ccc2o1 [Compound 24]
[2]
  LC50 HF: > 100 µg
[3]
  LC50 Diabrotica: > 25 ppm
[4]
  LC50 2-SM A: > 0.05%
  LC50 2-SM E: > 0.05%
[5]
  LC50 CL: 0.0075%
[6]
  LC50 TBW: > 0.1%

## Cc1nc2ccc(N=C(OCc3cccc(Oc4ccccc4)c3)C(C)C)cc2o1 [Compound 25]
[2]
  LC50 HF: 38 µg
[3]
  LC50 Diabrotica: > 25 ppm
[4]
  LC50 2-SM A: > 0.05%
  LC50 2-SM E: > 0.05%
[5]
  LC50 CL: 0.0075%
[6]
  LC50 TBW: > 0.1%

## CCCCc1nc2ccc(N=C(OCc3cccc(Oc4ccccc4)c3)C(C)C)cc2o1 [Compound 26]
[1]
  LC50 BA: 0.05%
[2]
  LC50 HF: > 100 µg
[4]
  LC50 2-SM A: > 0.05%
  LC50 2-SM E: > 0.05%
[5]
  LC50 CL: 0.004%
[6]
  LC50 TBW: > 0.1%

## CC(C)C(=Nc1ccc2nc(C(C)C)oc2c1)OCc1cccc(Oc2ccccc2)c1 [Compound 27]
[1]
  LC50 BA: > 0.05%
[2]
  LC50 HF: > 100 µg
[4]
  LC50 2-SM A: > 0.05%
  LC50 2-SM E: > 0.05%
[5]
  LC50 CL: 0.0035%
[6]
  LC50 TBW: > 0.1%

## CC(C)C(=Nc1ccc(Cl)nc1)OCc1ccc(F)c(Oc2ccc(F)cc2)c1 [Compound 31]
[2]
  LC50 HF: 7.5 µg
[3]
  LC50 Diabrotica: > 25 ppm
[4]
  LC50 2-SM A: > 0.05%
  LC50 2-SM E: > 0.05%
[5]
  LC50 CL: 0.0016%
[6]
  LC50 TBW: 0.45%

## CC(C)C(=Nc1ccc(Cl)nc1)OCc1ccc(F)c(Oc2ccc(Cl)cc2)c1 [Compound 32]
[2]
  LC50 HF: 22 µg
[3]
  LC50 Diabrotica: > 25 ppm
[4]
  LC50 2-SM A: > 0.05%
  LC50 2-SM E: 0.05%
[5]
  LC50 CL: 0.00075%
[6]
  LC50 TBW: 0.03%

## CC(C)C(=Nc1cc(C(F)(F)F)ccn1)OCc1cccc(Oc2ccccc2)c1 [Compound 34]
[2]
  LC50 HF: > 100 µg
[3]
  LC50 Diabrotica: > 25 ppm
[4]
  LC50 2-SM A: > 0.05%
  LC50 2-SM E: > 0.05%
[5]
  LC50 CL: 0.018%
[6]
  LC50 TBW: > 0.1%

## CC(C)C(=Nc1cncc(C(F)(F)F)c1)OCc1cccc(Oc2ccc(F)cc2)c1 [Compound 35]
[2]
  LC50 HF: 23 µg
[3]
  LC50 Diabrotica: > 25 ppm
[4]
  LC50 2-SM A: > 0.05%
  LC50 2-SM E: > 0.05%
[5]
  LC50 CL: 0.001%
[6]
  LC50 TBW: 0.1%

## CC(C)C(=Nc1cc(C(F)(F)F)ccn1)OCc1cccc(Oc2ccc(F)cc2)c1 [Compound 36]
[2]
  LC50 HF: > 100 µg
[3]
  LC50 Diabrotica: > 25 ppm
[4]
  LC50 2-SM A: > 0.05%
  LC50 2-SM E: > 0.05%
[5]
  LC50 CL: 0.015%
[6]
  LC50 TBW: > 0.1%

## CCOc1ccc(N=C(OCc2cccc(Oc3ccccc3)c2)C(C)C)cn1 [Compound 41]
[1]
  LC50 BA: > 0.05%
[2]
  LC50 HF: < 100 µg
[3]
  LC50 Diabrotica: > 25 ppm
[4]
  LC50 2-SM A: > 0.05%
  LC50 2-SM E: > 0.05%
[6]
  LC50 TBW: > 0.1%
